What was measured:
CDK9 = target: T1, CDK9 (Homo sapiens, UniProt P50750); assay: KdELECT binding assay, CDK9; conditions: CDK9, Table 7
T1 construct: made in house; host or cells: E. coli BL21-derived host (T7 phage) or HEK-293 ('BEK-293' [sic])
Procedure: Compounds were tested using a KdELECT. Kinase-tagged T7 phage strains were prepared in an E. coli host derived from the BL21 strain. E. coli were grown to log-phase and infected with T7 phage and incubated with shaking at 32° C. until lysis. The lysates were centrifuged and filtered to remove cell debris. The remaining kinases were produced in BEK-293 cells and subsequently tagged with DNA for qPCR detection. Streptavidin-coated magnetic beads were treated with biotinylated small molecule ligands for 30 minutes at room temperature to generate affinity resins for kinase assays. The liganded beads were blocked with excess biotin and washed with blocking buffer (SeaBlock (Pierce), 1% BSA, 0.05% Tween 20, 1 mM DTT) to remove unbound ligand and to reduce non-specific binding. Binding reactions were assembled by combining kinases, liganded affinity beads, and test compounds in 1× binding buffer (20% SeaBlock, 0.17×PBS, 0.05% Tween 20, 6 mM DTT). Test compounds were prepared as 111× stocks in 100% DMSO. Kd values were determined using an 11-point 3-fold compound dilution series with three DMSO control points. All compounds for Kd measurements are distributed by acoustic transfer (non-contact dispensing) in 100% DMSO. The compounds were then diluted directly into the assays such that the final concentration of DMSO was 0.9%. All reactions performed in polypropylene 384-well plate. Each was a final volume of 0.02 mL. The assay plates were incubated at room temperature with shaking for 1 hour and the affinity beads were washed with wash buffer (lx PBS, 0.05% Tween 20). The beads were then re-suspended in elution buffer (lx PBS, 0.05% Tween 20, 0.5 μM nonbiotinylated affinity ligand) and incubated at room temperature with shaking for 30 minutes. The kinase concentration in the eluates was measured by qPCR.

[1] = test system: T-Rex 293 cell line SC3 cells lacking increased expression of androgen receptor protein; assay: Cellular growth inhibition, T-Rex 293 SC3 cells without doxycycline; format: cell-based; conditions: not exposed to doxycycline, 72 hours, CellTiter-Glo 2.0
Procedure: (§1) The following types of cells were prepared for this experiment: (i) a T-Rex 293 cell line having increased expression of androgen receptor protein due to exposure to doxycycline and (ii) a T-Rex 293 cell line lacking increased expression of androgen receptor protein. Ability of the test compounds to inhibit proliferation of the foregoing cell types was evaluated according to the procedures set forth below.
(§2) The doxycycline-inducible androgen receptor protein expressing cell line was established using the following protocol: T-Rex 293 cells were purchased from Invitrogen (Cat #R71007) and transfected using Lipofectamine 2000 with the wild-type androgen receptor protein sequence cloned into the pcDNA4/TO vector. Transfected cells were selected using 400 μg/mL Zeocin (Invitrogen Cat #R25001). Following selection, single clones were raised and maintained in Dulbecco's Modified Eagle Medium (DMEM) supplemented with 10% w/w Tetracycline-free fetal bovine serum (FBS) and 250 μg/mL Zeocin. Clones were analyzed for expression of androgen receptor protein in the presence and absence of 10 ng/mL doxycycline (Sigma Cat #D9891), and a single doxycycline-inducible clone (hereinafter “SC3”) was selected for use in downstream assays.
(§3) The SC3 cells were seeded on poly-D-lysine coated, black clear-bottom 384-well plates at 2500/well, in 25 μL Phenol Red Free Dulbecco's Modified Eagle Medium (DMEM) supplemented with 10% w/w charcoal-dextran treated fetal bovine serum (FBS) and 1% w/w pen-strep, with or without 10 ng/mL doxycycline. Pen-Strep is a commercially available mixture of penicillin G and streptomycin, which is used in mammalian cell culture media to prevent bacterial contamination. Phenol Red Free Dulbecco's Modified Eagle Medium (DMEM) supplemented with 10% w/w charcoal-dextran treated fetal bovine serum (FBS) and 1% w/w pen-strep, with or without 10 ng/mL doxycycline is herein referred to as Treatment Medium. Following seeding of cells in the plates, the plates were spun at 300×g for 30 seconds, then equilibrated to room temperature for 30 minutes, and then deposited in a humidified tissue culture incubator maintained at 37° C. with 5% CO2.
(§4) At 24 hours after seeding of the cells, dilutions of test compound were prepared in DMSO and dissolved in Treatment Medium, to achieve a final DMSO concentration of 0.5% w/w, thereby providing the Test Compound Solution. A 25 μL aliquot of the Test Compound Solution was added to cells in the well plates. An equal volume of a solution containing DMSO and Treatment Medium was used as a negative control. Following treatment of cells with Test Compound Solution or said equal volume of a solution containing DMSO and Treatment Medium, the plates were spun at 300×g for 30 seconds, and then left in an incubator for 72 hours.
(§5) At the end of the treatment duration, cell viability was quantified with CellTiter-Glo 2.0 reagent (Promega Cat #G9243). For this purpose, plates were equilibrated to room temperature for 30 minutes, and then 25 μL of CellTiter-Glo 2.0 reagent was added to cells in the plate wells. Plates were then agitated on a shaker for two minutes at 500 rpm and subsequently incubated at room temperature for 10 minutes. Following incubation, the plates were spun at 3000×g for 30 seconds, then sealed with an optical adhesive cover, and luminescence readings were measured with an EnVision Plate Reader.
(§6) Data was normalized using zero luminescence for baseline. A four-parameter non-linear regression curve fit was applied to dose-response data in GraphPad Prism data analysis software to determine the half-maximal growth inhibitory concentration (GI50) for each test compound.

[2] = test system: T-Rex 293 cell line SC3 cells having increased expression of androgen receptor protein; assay: Cellular growth inhibition, T-Rex 293 SC3 cells with doxycycline (increased androgen receptor expression); format: cell-based; conditions: with 10 ng/mL doxycycline (increased androgen receptor), 72 hours, CellTiter-Glo 2.0
Procedure: as §1, §2, §3, §4, §5, §6

T47D cells = assay: Cellular growth inhibition assay for T47D cells; format: cell-based; conditions: Homo sapiens, 72 hours, CellTiter-Glo 2.0
Procedure: (§7) T47D cells were purchased from American Type Cell Culture (ATCC Cat #HTB-133) and then seeded on poly-D-lysine coated, black clear-bottom 384-well plates at 3000/well in 25 μL Dulbecco's Modified Eagle Medium (DMEM) supplemented with 10% w/w Fetal bovine serum (FBS), 0.2 units/mL recombinant human insulin (Gibco Cat #12585014), and 1% w/w Pen-Strep. Pen-Strep is a commercially available mixture of penicillin G and streptomycin, which is used in mammalian cell culture media to prevent bacterial contamination. Dulbecco's Modified Eagle Medium (DMEM) supplemented with 10% w/w fetal bovine serum (FBS), 0.2 units/mL recombinant human insulin, and 1% w/w Pen-Strep is herein referred to as Treatment Medium. Following seeding of cells in the plates, the plates were spun at 300×g for 30 seconds, then equilibrated to room temperature for 30 minutes, and then deposited in a humidified tissue culture incubator maintained at 37° C. with 5% CO2.
as §4
as §5, with “Reader (Perkin Elmer).” for “Reader.”
as §6

VCaP cells = assay: Cellular growth inhibition assay for VCaP cells; format: cell-based; conditions: Homo sapiens, 72 hours, CellTiter-Glo 2.0
Procedure: as §7, with “VCaP” for “T47D”, “#CRL2876)” for “#HTB-133)”, “5000/well” for “3000/well”, “(FBS)” for “(FBS), 0.2 units/mL recombinant human insulin (Gibco Cat #12585014),”, “(FBS)” for “(FBS), 0.2 units/mL recombinant human insulin,”
as §4
as §5, with “Reader. Data was normalized using zero luminescence for baseline.” for “Reader.”
A four-parameter non-linear regression curve fit was applied to dose-response data in GraphPad Prism data analysis software to determine the half-maximal growth inhibitory concentration (GI50) for each test compound.

T1 sequence (P50750 whole entry): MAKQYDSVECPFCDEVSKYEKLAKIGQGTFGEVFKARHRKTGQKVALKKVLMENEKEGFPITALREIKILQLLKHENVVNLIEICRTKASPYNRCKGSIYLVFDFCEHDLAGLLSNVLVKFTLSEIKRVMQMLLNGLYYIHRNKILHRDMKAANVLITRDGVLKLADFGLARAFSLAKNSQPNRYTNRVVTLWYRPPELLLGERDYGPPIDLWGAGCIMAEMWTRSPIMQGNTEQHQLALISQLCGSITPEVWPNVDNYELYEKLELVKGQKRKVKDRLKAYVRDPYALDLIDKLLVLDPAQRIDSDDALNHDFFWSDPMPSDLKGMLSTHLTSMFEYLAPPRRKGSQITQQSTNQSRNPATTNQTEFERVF

Row | Structure (SMILES) | Kd (CDK9) [nM] | GI50 (T47D cells) [nM] | GI50 (VCaP cells) [nM] | GI50 [1] [nM] | GI50 [2] [nM]
1 | CC1(C)[C@H](NC(=O)c2cnc(N3CCC(OCCOCCOCCOCCOCCNS(=O)(=O)c4ccc(Nc5ncc(Br)c(Nc6cccc(F)c6C(N)=O)n5)cc4)CC3)nc2)C(C)(C)[C@H]1Oc1ccc(C#N)c(Cl)c1 [Compound I-15] | > 2500 | 500 to 1500 |  | > 3500 | > 3500
2 | CC1(C)[C@H](NC(=O)c2cnc(N3CCC(OCCCN4CCN(CCCNS(=O)(=O)c5ccc(Nc6ncc(Br)c(Nc7cccc(F)c7C(N)=O)n6)cc5)CC4)CC3)nc2)C(C)(C)[C@H]1Oc1ccc(C#N)c(Cl)c1 [Compound I-17] | > 2500 | 1500 to 3000 |  | > 3500 | > 3500
3 | CN(CCOCCOCCOCCOCCNS(=O)(=O)c1ccc(Nc2ncc(Br)c(Nc3cccc(F)c3C(N)=O)n2)cc1)c1ncc(C(=O)N[C@H]2C(C)(C)[C@H](Oc3ccc(C#N)c(Cl)c3)C2(C)C)cn1 [Compound I-20] | > 2500 | < 500 |  | > 3500 | > 3500
4 | CCc1cnn2c(NCc3ccc(OCCOCCN4CC5CN(c6ncc(C(=O)N[C@H]7C(C)(C)[C@H](Oc8ccc(C#N)c(Cl)c8)C7(C)C)cn6)CC5C4)nc3)cc(N3CCCC[C@H]3CCO)nc12 (stereo partly drawn) [Compound I-62] | 50 to 500 |  | 100 to 1000 | 100 to 1000 | < 100
5 | CCc1cnn2c(NCc3ccc(OCCOC4CCN(C5CN(c6ncc(C(=O)N[C@H]7C(C)(C)[C@H](Oc8ccc(C#N)c(Cl)c8)C7(C)C)cn6)C5)CC4)nc3)cc(N3CCCC[C@H]3CCO)nc12 [Compound I-63] | < 50 |  | < 100 | < 100 | < 100
6 | CCc1cnn2c(NCc3ccc(N(C)CCCN4CCC(C5CN(c6ncc(C(=O)N[C@H]7C(C)(C)[C@H](Oc8ccc(C#N)c(Cl)c8)C7(C)C)cn6)C5)CC4)nc3)cc(N3CCCC[C@H]3CCO)nc12 [Compound I-82] |  | 500 to 1500 | 100 to 1000 | 100 to 1000 | 100 to 1000
7 | CCc1cnn2c(NCc3ccc(OCCOC4CCN(c5ncc(C(=O)N[C@H]6C(C)(C)[C@H](Oc7ccc(C#N)c(Cl)c7)C6(C)C)cn5)CC4)nc3)cc(N3CCCC(F)(F)C3)nc12 [Compound I-84, N-[3-(3-chloro-4-cyano-phenoxy)-2,2,4,4-tetramethyl-cyclobutyl]-2-[4-[2-[[5-[[[5-(3,3-difluoro-1-piperidyl)-3-ethyl-pyrazolo[1,5-a]pyrimidin-7-yl]amino]methyl]-2-pyridyl]oxy]ethoxy]-1-piperidyl]pyrimidine-5-carboxamide] |  | 1500 to 3000 | > 3500 | > 3500 | 100 to 1000
8 | CCc1cnn2c(NCc3ccc(N(C)CCOC4CCN(C5CN(c6ncc(C(=O)N[C@H]7C(C)(C)[C@H](Oc8ccc(C#N)c(Cl)c8)C7(C)C)cn6)C5)CC4)nc3)cc(N3CCCC[C@H]3CCO)nc12 [Compound I-85] |  | < 500 | 100 to 1000 | 100 to 1000 | 100 to 1000

More lines, main results first:

Row | Kd (CDK9) [nM] | GI50 (T47D cells) [nM] | GI50 (VCaP cells) [nM] | Structure (SMILES) | GI50 [1] [nM] | GI50 [2] [nM]
9 |  | > 3000 | > 3500 | CC1(C)[C@H](NC(=O)c2cnc(N3CCC(OCCOCCOCCN4C/C=C/CCOc5cccc(c5)-c5ccnc(n5)Nc5cccc(c5)C4)CC3)nc2)C(C)(C)[C@H]1Oc1ccc(C#N)c(Cl)c1 [Compound I-89] | > 3500 | 100 to 1000
10 |  | 500 to 1500 | > 3500 | CCc1cnn2c(NCc3ccc(OCCN4CCN(CC5CCN(c6ncc(C(=O)N[C@H]7C(C)(C)[C@H](Oc8ccc(C#N)c(Cl)c8)C7(C)C)cn6)CC5)CC4)nc3)cc(N3CCCC(F)(F)C3)nc12 [Compound I-91] | > 3500 | 100 to 1000
11 |  | 500 to 1500 | 100 to 1000 | CCc1cnn2c(NCc3ccc(OCCCN4CCN(CC5CCN(c6ncc(C(=O)N[C@H]7C(C)(C)[C@H](Oc8ccc(C#N)c(Cl)c8)C7(C)C)cn6)CC5)CC4)nc3)cc(N3CCCC(F)(F)C3)nc12 [Compound I-92] | 1000 to 3500 | 100 to 1000
12 |  | 500 to 1500 | > 3500 | CCc1cnn2c(NCc3ccc(OCCCCN4CCN(CC5CCN(c6ncc(C(=O)N[C@H]7C(C)(C)[C@H](Oc8ccc(C#N)c(Cl)c8)C7(C)C)cn6)CC5)CC4)nc3)cc(N3CCCC(F)(F)C3)nc12 [Compound I-93] | > 3500 | 100 to 1000

— patent US20260159520A1, “HETEROBIFUNCTIONAL COMPOUNDS AND METHODS OF TREATING DISEASE” (Halda Therapeutics OpCo, Inc., priority 2022, published 2026)
